Experimental data taken from patent US20160304547A1, “MACROLIDE COMPOUND” (PULIKE BIOLOGICAL ENGINEERING, INC, priority 2013, published 2016).

Experiments:
[1] = system: Streptococcus pneumoniae CMCC 31203; experiment: In vivo antibacterial test, survival of infected BALB/c mice; conditions: BALB/c mice infected i.p. with Streptococcus pneumoniae, 5 mg per kg s.c. via neck for 3 consecutive days, deaths recorded until the seventh day
[2] = system: Actinobacillus pleuropneumoniae CVCC262; experiment: MIC by mini broth dilution technique (in vitro susceptibility); type: cell-based; conditions: Actinobacillus pleuropneumoniae CVCC262; broth dilution
Protocol: in vitro tests of susceptibility of the compounds according to the present disclosure against bacterial strains commonly used in laboratories. In accordance with the Performance Standards for Antimicrobial Disk Susceptibility Tests: Approved Standard published by the US National Committee for Clinical Laboratory Standards, the antibactetial activities of compounds prepared according to examples 5 to 187 were tested. The MICs (minimum inhibitory concentration) of the medicaments prepared according to the examples on the following bacterial strains were measured through mini broth dilution technique. Staphylococcus aureus CVCC26003, Streptococcus equines CVCC556. Actinobacillus pleuropneumoniae CVCC262, Haemophilus parasuis, and Pasteurella multocida CVCC399, which were purchased from the Control Institute of Veterinary Bioproducts and Pharmaceuticals, China. Liquid culture medium: […] Solid culture medium: […] The strains were taken out of a regrigerator at −20° C. to be revived, and were spreaded by streaking on the solid culture medium with an inoculating loop. The inoculated culture medium was cultured at 35° C. in a constant temperature incubator for 20 h. Monoclonal antibodies were selected from a well-grown culture plate and streaked on the solid culture medium. The inoculated culture medium was cultured at 35° C. in the constant temperature incubator for 20 h. […] A 96-well plate was used, and 100 μl of DMSO was added into each of wells 2 to 11, and 200 μl of ready-prepared medicament solution was added into the 1st well, 100 μl of the medicament solution was extracted from the 1st well and added into the 2nd well. Double dilution was performed until the 11th well, thereby forming 11 gradients. In this case, compound of parent plate was prepared. 3 μl of double diluted medicament solution was extracted with a 12-channel pipettor and added into wells 1-11 of a new disposable 96-well culture plate. The 12th well thereof is a controll well. For each medicament, there are two adjacent rows which are parallel. The transferred compound plate was reserved for later use. […] The dilution ratio was recorded, and the bacterial liquid for the tests was diluted according to the recorded dilution ratio. Subsequently, the bacterial suspension and the liquid culture medium were diluted in the proportion of 1:200. The diluted solution was reserved for later use.

Structure (SMILES) | Animal survival rate [1] | MIC values Actinobacillus pleuropneumoniae CVCC262 [2] [ug/mi] | responders at 5 mg/kg ([1]; CMCC31203, sc, 168 h, read-out: Animal survival rate) [%]
CCCNC[C@]1(O)[C@H](C)O[C@@H](O[C@H]2[C@H](C)[C@@H](O[C@@H]3O[C@H](C)C[C@H](N(C)C)[C@H]3O)[C@](C)(O)C[C@@H](C)NC[C@H](C)[C@@H](O)[C@](C)(O)[C@@H](CC)OC(=O)[C@@H]2C)C[C@@]1(C)OC [syzx-1] | 80% (8/10) |  | 
CC[C@@H]1OC(=O)[C@H](C)[C@H](OC2C[C@@](C)(OC)[C@](O)(CNCCOC)[C@H](C)O2)[C@@H](C)[C@@H](O[C@@H]2O[C@H](C)C[C@H](N(C)C)[C@H]2O)[C@](C)(O)C[C@@H](C)NC[C@@H](C)[C@H](O)[C@]1(C)O (stereo partly shown) [syzx-58] |  | 16 | 80
CCCNC[C@]1(O)[C@H](C)O[C@@H](O[C@H]2[C@H](C)[C@@H](O[C@@H]3O[C@H](C)C[C@H](N(C)C)[C@H]3O)[C@](C)(O)C[C@@H](C)N(CCC)C[C@H](C)[C@@H](O)[C@](C)(O)[C@@H](CC)OC(=O)[C@@H]2C)C[C@@]1(C)OC [syzx-101, (2R,3S,4R,5S,8R,10R,11R,12S,13S,14R)-13-[(2,6-dideoxy-3-C-methyl-3-O-methyl-4-C-[(n-propyl-amino)methyl]-α-L-ribopyranosyl)oxy]-2-ethyl-3,4,10-trihydroxy-3,5,8,10,12,14-hexamethyl-7-propyl-11-[[3,4,6-trideoxy-3-(dimethylamino)-β-D-xylo-hexopyranosy]oxy]-1-oxa-7-azacyclopentadecan-15-one] | 90% (9/10) |  | 
